Experimental data as given in patent US6462055B2, “Alpha-methylbenzyl-containing thiourea inhibitors of herpes viruses containing a phenylenediamine group” (Wyeth, priority 1998, dated 2002).
Converted amounts (≈) assume the structure as drawn.

Key:
VZV strain Ellen = assay: VZV Antiviral (ELISA) Assay in human foreskin fibroblast cells; assay type: cell-based, varicella-zoster virus; settings: for inhibition at 10 µg/mL / IC50: Human alphaherpesvirus 3, Fibroblast; for inhibition at 10 µg/mL: read-out: % inhibition 10 ug/ml VZV, 10 ug/ml; for IC50: read-out: IC50 (ug/ml) VZV
Experimental: For the generation of stock VZV to be used in the assay, VZV strain Ellen (ATCC #VR-1367) is used to infect human foreskin fibroblast (HFF) cells at low multiplicity (less than 0.1) and incubated overnight at 37° C. in 5% CO2. After the overnight incubation, the mixture of uninfected and VZV-infected HFF infected cells are then harvested and added to each well of 96-well plates (3.5×10^4 cells in 100 μl DMEM supplemented with 2% FBS) which contain test compound or the reference standard drug control (in 100 μl DMEM supplemented with 2% FBS per well). These cells are incubated for three days at 37° C. in 5% CO2, then fixed for ELISA assay. The primary antibody is murine anti-VZV glycoprotein II monoclonal antibody (Applied Biosystems, Inc. #13-145-100) and the secondary antibody is goat anti-mouse IgG linked to β-galactosidase. Thus the extent of viral replication is determined by assessing β-galactosidase activity by quantifying the generation of the 4-methyl umbelliferone fluorescent cleavage product after addition of the methyl umbelliferyl-β-D-galactoside (Sigma #M1633) substrate on a microfluorimeter (365 nm for excitation and 450 nm for emission). Antiviral activity (IC50) of the test compound is determined by comparing the flourescence obtained in absence of compound to that obtained in the presence of compound.

HSV-1 = assay: HSV Antiviral (ELISA) Assay in Vero cells; assay type: cell-based, herpes simplex virus type 1; settings: HSV-1, Vero cells; for IC50: Human alphaherpesvirus 1, read-out: IC50 (ug/ml) HSV
Experimental: Vero cells (ATCC #CCL-81) are plated on 96-well tissue culture plates at 3.5×10^4 cells per 100 μl tissue culture DMEM (Dulbeccos modified Eagle media) supplemented with 2% fetal bovine serum (FBS) in each well. After overnight incubation @ 37° C. (in 5% CO2) and 30 minutes prior to infection with HSV-1 (multiplicity of infection equal to 0.006), cells are either untreated, or treated with test compound (multiple concentrations) or reference standard drug control. After approximately 24 hours post-infection incubation @ 37° C. (in 5% CO2), cells are fixed for ELISA assay. The primary antibody is murine anti-HSV glycoprotein D monoclonal primary antibody and the secondary antibody is goat anti-mouse IgG linked to β-galactosidase. Thus the extent of viral replication is determined by assessing β-galactosidase activity by quantifying the generation of the 4-methyl umbelliferone fluorescent cleavage product after addition of the methyl umbelliferyl-β-D-galactoside (Sigma #M1633) substrate on a microfluorimeter (365 nm for excitation and 450 nm for emission). Antiviral activity (IC50) of the test compound is determined by comparing the flourescence obtained in absence of compound to that obtained in the presence of compound.

| SMILES | inhibition at 10 µg/mL (VZV strain Ellen) [%] | IC50 (VZV strain Ellen) [µg/mL] | IC50 (HSV-1) [µg/mL] | IC50 (ug/ml) VZV (VZV strain Ellen) [µg/mL] | % inhibition 10 ug/ml VZV (VZV strain Ellen) [%] | IC50 (ug/ml) HSV (HSV-1) [µg/mL] |
| --- | --- | --- | --- | --- | --- | --- |
| CSc1ccc(NC(=S)Nc2ccc(NC(=O)c3ccccc3F)cc2)cc1Cl [Example 847, N-{4-[3-(3-Chloro-4-methylsulfanyl-phenyl)-thioureido]-phenyl}-2-fluoro-benzamide] | 65 | > 10 | 0.4 (≈ 0.897 µM) | – | – | – |
| O=C(Nc1ccc(NC(=S)Nc2ccc3[nH]cnc3c2)cc1)c1ccccc1F [Example 496] | – | – | – | >10 | 25 | >10 |
| CC(O)c1ccc(NC(=S)Nc2ccc(NC(=O)c3ccccc3F)cc2)cc1Cl (stereo not shown) [Example 865, N-(4-{3-[3-Chloro-4-(1-hydroxy-ethyl)-phenyl]-thioureido}-phenyl)-2-fluoro-benzamide] | 52 | > 10 | 4 (≈ 9.01 µM) | – | – | – |
| C[C@H](NC(=S)Nc1ccc(NC(=O)c2ccccc2F)cc1)c1ccccc1 [Example 1013, 2-Fluoro-N-{4-[3-((1S)-1-phenyl-ethyl)-thioureido]-phenyl}-benzamide] | – | 0.27 (≈ 0.686 µM) | > 10 | – | – | – |
| CC(NC(=S)Nc1ccc(NC(=O)c2ccc(C#N)cc2)cc1)c1ccc(F)cc1 (stereo not shown) [Example 1022, 4-Cyano-N-(4-{3-[1-(4-fluoro-phenyl)-ethyl]-thioureido}-phenyl)-benzamide] | – | 1.5 (≈ 3.58 µM) | > 10 | – | – | – |
| CC(NC(=S)Nc1ccc(NC(=O)c2cc3ccccc3o2)cc1)c1ccc(C#N)cc1 (stereo not shown) [Example 983, Benzofuran-2-carboxylic acid (4-{3-[1-(4-cyano-phenyl)-ethyl]-thioureido}-phenyl)-amide] | – | 0.6 (≈ 1.36 µM) | > 10 | – | – | – |
| COc1cccc(NC(=S)Nc2ccc(NC(=O)c3ccccc3F)cc2)c1 [Example 487] | – | – | – | >10 | 48 | 4 (≈ 10.1 µM) |
| COc1ccc(C(=O)Nc2ccc(NC(=S)Nc3ccc(OC)c(Cl)c3)cc2)cc1 [Example 820, N-{4-[3-(3-Chloro-4-methoxy-phenyl)-thioureido]-phenyl}-4-methoxy-benzamide] | 20 | > 10 | 4 (≈ 9.05 µM) | – | – | – |
| Cc1ccc([C@@H](C)NC(=S)Nc2ccc(NC(=O)c3ccccc3F)cc2)cc1 [Example 1012, 2-Fluoro-N-{4-[3-((1R)-1-p-tolyl-ethyl)-thioureido]-phenyl}-benzamide] | – | > 7.5 | > 10 | – | – | – |
| C[C@@H](NC(=S)Nc1ccc(NC(=O)c2ccccc2F)cc1)c1ccccc1 [Example 1016, 2-Fluoro-N-{4-[3-((1R)-1-phenyl-ethyl)-thioureido]-phenyl}-benzamide] | – | > 7.5 | > 10 | – | – | – |
| CC(NC(=S)Nc1ccc(NC(=O)c2ccccc2F)cc1)c1ccc(C(F)(F)F)cc1 (stereo not shown) [Example 787] | – | > 7.5 | > 10 | – | – | – |
| CC(NC(=S)Nc1ccc(NC(=O)c2cc3ccccc3cn2)cc1)c1ccc(F)cc1 (stereo not shown) [Example 984, Isoquinoline-3-carboxylic acid (4-{3-[1-(4-fluoro-phenyl)ethyl]-thioureido}-phenyl)-amide] | – | 0.08 (≈ 0.18 µM) | 7.2 (≈ 16.2 µM) | – | – | – |
| COc1ccc(NC(=S)Nc2ccc(NC(=O)c3ccccc3)cc2)cc1Cl [Example 817, N-{4-[3-(3-Chloro-4-methoxy-phenyl)-thioureido]-phenyl}-benzamide] | 66 | 12 (≈ 29.1 µM) | 1 (≈ 2.43 µM) | – | – | – |
| O=C(Nc1ccc(NC(=S)Nc2cccc(Cl)c2Cl)cc1)c1ccccc1F [Example 927, N-{4-[3-(2,3-Dichloro-phenyl)-thioureido]-phenyl}-2-fluoro-benzamide] | 1 | – | 5 (≈ 11.5 µM) | – | – | – |
| Cc1ccc([C@H](C)NC(=S)Nc2ccc(NC(=O)c3ccccc3F)cc2)cc1 [Example 1011, 2-Fluoro-N-{4-[3-((1S)-1-p-tolyl-ethyl)-thioureido]-phenyl}-benzamide] | – | 0.55 (≈ 1.35 µM) | > 10 | – | – | – |
| CC(NC(=S)Nc1ccc(NC(=O)c2ccccc2F)cc1)c1cccc(C#N)c1 (stereo not shown) [Example 791] | – | 7 (≈ 16.7 µM) | > 10 | – | – | – |

| SMILES | inhibition at 10 µg/mL (VZV strain Ellen) [%] | IC50 (VZV strain Ellen) [µg/mL] | IC50 (HSV-1) [µg/mL] | IC50 (ug/ml) VZV (VZV strain Ellen) [µg/mL] | % inhibition 10 ug/ml VZV (VZV strain Ellen) [%] | IC50 (ug/ml) HSV (HSV-1) [µg/mL] |
| --- | --- | --- | --- | --- | --- | --- |
| COc1cccc(C(=O)Nc2ccc(NC(=S)Nc3ccc(OC)c(Cl)c3)cc2)c1 [Example 819, N-{4-[3-(3-Chloro-4-methoxy-phenyl)-thioureido]-phenyl}-3-methoxy-benzamide] | 93 | 2.5 (≈ 5.66 µM) | 6 (≈ 13.6 µM) | – | – | – |
| C[C@@H](NC(=S)Nc1ccc(NC(=O)c2ccccc2F)cc1)c1ccc(Cl)cc1 [Example 1014, N-(4-{3-[(1R)-1-(4-Chloro-phenyl)-ethyl]-thioureido}-phenyl)-2-fluoro-benzamide] | – | > 7.5 | > 10 | – | – | – |
| CN(C)c1ccc(NC(=S)Nc2ccc(NC(=O)c3ccccc3F)cc2)cc1Cl [Example 852, N-{4-[3-(3-Chloro-4-dimethylamino-phenyl)-thioureido]-phenyl}-2-fluoro-benzamide] | 80 | 6.5 (≈ 14.7 µM) | 4 (≈ 9.03 µM) | – | – | – |
| CC(NC(=S)Nc1ccc(NC(=O)c2cc3ccccc3cn2)cc1)c1ccc(Br)cc1 (stereo not shown) [Example 987, Isoquinoline-3-carboxylic acid (4-{3-[1-(4-bromo-phenyl)-ethyl]-thioureido}-phenyl)-amide] | – | 0.046 (≈ 0.091 µM) | 3 (≈ 5.94 µM) | – | – | – |
| C[C@H](NC(=S)Nc1ccc(NC(=O)c2ccccc2F)cc1)c1ccc(Br)cc1 [Example 1004, (S)-N-(4-{3-[1-(4-Bromo-phenyl)-ethyl]-thioureido}-phenyl)-2-fluoro-benzamide] | – | 0.06 (≈ 0.127 µM) | > 10 | – | – | – |
| CC(=O)Nc1ccc(NC(=S)Nc2ccc(NC(=O)c3ccccc3F)cc2)cc1Cl [Example 397] | – | – | – | >10 | 35 | 5 (≈ 10.9 µM) |
| COc1cc(OC)c(NC(=S)Nc2ccc(NC(=O)c3cccc(N(C)C)c3)cc2)cc1Cl [Example 136] | – | – | – | >10 | 40 | 1 (≈ 2.06 µM) |
| C[C@H](NC(=S)Nc1ccc(NC(=O)c2ccccc2F)cc1)c1ccc(Cl)cc1 [Example 1015, N-(4-{3-[(1S)-1-(4-Chloro-phenyl)-ethyl]-thioureido}-phenyl)-2-fluorobenzamide] | – | 0.03 (≈ 0.0701 µM) | > 10 | – | – | – |
| C[C@@H](NC(=S)Nc1ccc(NC(=O)c2ccccc2F)cc1)c1ccc(Br)cc1 [Example 1005, N-(4-{3-[(1R)-1-(4-Bromo-phenyl)-ethyl]-thioureido}-phenyl)-2-fluoro-benzamide] | – | 4.3 (≈ 9.1 µM) | 2.9 (≈ 6.14 µM) | – | – | – |
| COc1ccc(C(=O)Nc2ccc(NC(=S)Nc3cc(Cl)c(OC)c(Cl)c3)cc2)cc1 [Example 880, N-{4-[3-(3,5-Dichloro-4-methoxy-phenyl)-thioureido]-phenyl}-4-methoxy-benzamide] | 30 | > 10 | > 10 | – | – | – |
| CC(NC(=S)Nc1ccc(NC(=O)c2cccc(C#N)c2)cc1)c1ccc(F)cc1 (stereo not shown) [Example 1020, 3-Cyano-N-(4-{3-[1-(4-fluoro-phenyl)-ethyl]-thioureido}-phenyl)-benzamide] | – | 6.3 (≈ 15.1 µM) | > 10 | – | – | – |
| CCCOc1ccc(NC(=S)Nc2ccc(NC(=O)c3ccccc3F)cc2)cc1Cl [Example 807] | – | – | – | 0.9 (≈ 1.97 µM) | – | >10 |
| CC(NC(=S)Nc1ccc(NC(=O)c2ccccc2F)cc1)c1cccc(C(F)(F)F)c1 (stereo not shown) [Example 786] | – | > 7.5 | > 10 | – | – | – |
| CC(NC(=S)Nc1ccc(NC(=O)c2cccc3cccnc23)cc1)c1ccc(F)cc1 (stereo not shown) [Example 991, Quinoline-8-carboxylic acid (4-{3-[1-(4-fluoro-phenyl)-ethyl]-thioureido}-phenyl)-amide] | – | 0.1 (≈ 0.225 µM) | > 10 | – | – | – |
| COc1c(Cl)cc(NC(=S)Nc2ccc(NC(=O)c3cccc(F)c3)cc2)cc1Cl [Example 872, N-{4-[3-(3,5-Dichloro-4-methoxy-phenyl)-thioureido]-phenyl}-3-fluoro-benzamide] | 28 | > 10 | 4 (≈ 8.61 µM) | – | – | – |
| CC(NC(=S)Nc1ccc(NC(=O)c2cc3ccccc3o2)cc1)c1ccc(Br)cc1 (stereo not shown) [Example 982, Benzofuran-2-carboxylic acid (4-{3-[1-(4-bromo-phenyl)-ethyl]-thioureido}-phenyl)-amide] | – | 0.1 (≈ 0.202 µM) | > 10 | – | – | – |
